Columns and labels:
[1] = system: IBA1+ macrophages in the colon; experiment: Mouse DSS model of colitis: colon macrophages by image analysis; format: in vivo; details: 100 mg/kg QD day 7–14
Method: (§1) On day 0, super prophylactic dosing of compound 2 began on C57BL/6 female mice. […] At this time compound 3 dosing initiated. […] Statistical analyses of in-vivo pharmacodynamic and efficacy data were performed as follows. D'Agostino & Pearson normality test was first used to test data for Gaussian distribution. If all groups passed normality test, a One-way ANOVA was used with Dunnett’s multiple comparisons test to compare treatment groups to Vehicle group. If not all groups passed normality test, a Kruskal-Wallis nonparametric ANOVA was used, with Dunn’s multiple comparison test to compare treatment groups to Vehicle group. Levels of significance compared to Vehicle are annotated as follows: * = p<0.05, ** = p<0.01, *** = p<0.001, **** = p < 0.0001. Optimal number of mice per group was determined using power analysis; N = 10 mice per group at 80% power predicts statistically significant detection of ≥ ~40% reduction in colon IBA1+ and ≥ ~75% reduction in colon erosion length comparing treatment groups to Vehicle group. Naïve groups were omitted from statistical analyses.

murine colitis = system: murine colitis; design: method as in earlier work; details: cited from earlier work
rheumatoid arthritis = system: rheumatoid arthritis; design: method as in PMID 26233509; details: DMARD-refractory active RA patients; cited from earlier work
[2] = system: CD11b+ CD11c+ MHCII- nonclassical monocytes; experiment: Mouse DSS model of colitis: circulating non-classical monocytes by FACS; format: in vivo; details: 100 mg/kg QD day 7–14
Method: as §1

## CC1(C)CC=C(c2nc(C3CC(C)(C)OC(C)(C)C3)ccc2NC(=O)c2nc(C#N)c[nH]2)CC1 [Compound 3]
[1]
  Depletion of macrophages (IBA1+) in the colon: 76%
Murine colitis
  Clinical and histopathological disease readouts: reduction in clinical and histopathological disease readouts
Rheumatoid arthritis
  Efficacy in Phase II trial: lack of efficacy
[2]
  Depletion of CD11b+ CD11c+ MHCII- nonclassical monocytes: 94%
